# Test results published in patent publication US8404683B2, “Inhibitors of the interaction between MDM2 and P53” (Janssen Pharmaceutical N.V., priority 2004, dated 2013).
# Structures can show the parent of a compound that is named as a salt.
# System: U87MG cells
# Test: Proliferation assay (MTT-based) on U87MG tumour cells
# Conditions: Homo sapiens, U-87 MG, 96 h, 4 days of incubation, negative log value of the IC50-value, read-out: cell proliferation pIC50 (converted)
# Method: U87MG cells are human glioblastoma cells with wild type p53. In this cell line MDM2 tightly controls p53 expression.
# Cellular activity of the compounds of formula (I) was determined on U87MG tumour cells using a colorimetric assay for cell toxicity or survival (see example C.2).
# All compounds tested were dissolved in DMSO and further dilutions were made in culture medium. Final DMSO concentrations never exceeded 0.1% (v/v) in cell proliferation assays. Controls contained U87MG cells and DMSO without compound and blanks contained DMSO but no cells.
# U87MG cells were seeded in 96-well cell culture plates at 3000 cells/well/100 μl. 24 hours later, medium was changed and compound and/or solvent were added to a final volume of 200 μl. Following 4 days of incubation, medium was replaced by 200 μl fresh medium and cell growth was assessed using a MTT-based assay. Therefore, 25 μl of the MTT solution (0.5% MTT research grade from Serva in phosphate-buffered saline) was added to each well and the cells were further incubated for 2 hours at 37° C. The medium was then carefully aspirated and the blue MTT-formazan product was dissolved by adding to each well 25 μl 0.1 M glycin and 100 μl DMSO. The plates were shaken for another 10 min on a micro plate shaker before reading absorbance at 540 nm by a Biorad micro plate reader.
# Within an experiment, the results for each experimental condition are the mean of 3 replicate wells. For initial screening purposes, compounds were tested at a single fixed concentration of 10^−5 M. For active compounds, the experiments were repeated to establish full concentration-response curves. For each experiment, controls (containing no drug) and a blank incubation (containing no cells or drugs) were run in parallel. The blank value was subtracted from all control and sample values. For each sample, the mean value for cell growth (in absorbance units) was expressed as a percentage of the mean value for cell growth of the control. When appropriate, IC50-values (concentration of the drug, needed to reduce cell growth to 50% of the control) were computed using probit analysis for graded data (Finney, D. J., Probit Analyses, 2nd Ed. Chapter 10, Graded Responses, Cambridge University Press, Cambridge 1962). Herein the effects of test compounds are expressed as pIC50 (the negative log value of the IC50-value) (see table F-2).
row,Compound,IC50 [nM]
1,c1ccc2c(CCNc3ccc(CNc4ccncc4)cc3)c[nH]c2c1 [Compound 11],5010
2,O=C(CCc1c[nH]c2ccccc12)Nc1ccc(Nc2ccncc2)cc1 [Compound 8],5010
3,COc1ccc2c(CNc3ccc(Nc4ccncc4)cc3)c[nH]c2c1 [Compound 7],2000
4,N#Cc1ccc2[nH]cc(C(O)C(=O)Nc3ccc(Nc4ccncc4)cc3)c2c1 (stereo not drawn) [Compound 113],> 10000
5,c1ccc2c(CCNc3ccc(Nc4ccnc(-c5nnn[nH]5)c4)cc3)c[nH]c2c1 [Compound 87],> 10000
6,OC1CCCc2c(Nc3ccc(NCCc4c[nH]c5ccccc45)cc3)ccnc21 (stereo not drawn) [Compound 111],79.4
7,CCOc1cc(Nc2ccnc3c2CCC3O)ccc1NCCc1c[nH]c2cc(OC)ccc12 (stereo not drawn) [Compound 112],31.6
8,c1ccc2c(CNCc3ccc(Nc4ccncc4)cc3)c[nH]c2c1 [Compound 79],2510
9,c1ccc2c(CCNc3ccc(Nc4ccnnc4)cc3)c[nH]c2c1 [Compound 119],> 10000
10,c1ccc2c(CCNc3ccc(Nc4ccnc(CN5CCNCC5)c4)cc3)c[nH]c2c1 [Compound 91],2510
11,COC(=O)c1cnccc1Nc1ccc(NCCc2c[nH]c3ccccc23)cc1 [Compound 124],5010
12,COCC(O)C1CCN(C(=O)C(Cc2c[nH]c3ccccc23)Nc2ccc(Nc3ccncc3)cc2)CC1 (stereo not drawn) [Compound 223],794
13,CC(O)c1cc(Nc2ccc(NCCc3c[nH]c4ccccc34)cc2)ccn1 (stereo not drawn) [Compound 104],3160
14,Cc1cc(Nc2ccc(NCCc3c[nH]c4ccccc34)cc2)c2ccccc2n1 [Compound 12],12.6
15,NC(=O)C(Cc1c[nH]c2ccccc12)Nc1ccc(Nc2ccncc2)cc1 (stereo not drawn) [Compound 65],> 10000
16,Cc1ccc2c(CCNc3ccc(Nc4ccncc4)cc3)c[nH]c2c1 [Compound 183],501
17,c1ccc(CCCOCc2cc(Nc3ccc(NCCc4c[nH]c5ccccc45)cc3)ccn2)cc1 [Compound 171],> 10000
18,COC(=O)CCNCc1cc(Nc2ccc(NCCc3c[nH]c4ccccc34)cc2)ccn1 [Compound 96],> 10000
19,Fc1ccc2c(CCNc3ccc(Nc4ccncc4)cc3)c[nH]c2c1 [Compound 184],1000
20,O=C(C(Cc1c[nH]c2ccccc12)Nc1ccc(Nc2ccncc2)cc1)N(CCCCO)Cc1ccccc1 (stereo not drawn) [Compound 207],794

row,Compound,IC50 [nM]
1,O=C(C(Cc1c[nH]c2ccccc12)Nc1ccc(Nc2ccncc2)cc1)N1CCC(CCCO)CC1 (stereo not drawn) [Compound 217],3980
2,CC(C)(C)C(O)c1cc(Nc2ccc(NCCc3c[nH]c4ccccc34)cc2)ccn1 (stereo not drawn) [Compound 138],1580
3,O=C(NCCO)c1cc(Nc2ccc(NCCc3c[nH]c4ccccc34)cc2)ccn1 [Compound 52],501
4,COC(=O)c1ccc2nc(C)cc(Nc3ccc(NCCc4c[nH]c5ccccc45)cc3)c2c1 [Compound 15],50.1
5,c1ccc2c(c1)NCC2CCNc1ccc(Nc2ccncc2)cc1 (stereo not drawn) [Compound 68],2510
6,OCc1cnccc1Nc1ccc(NCCc2c[nH]c3ccccc23)cc1 [Compound 123],5010
7,CC(NCCNC(=O)OCc1ccccc1)c1cc(Nc2ccc(NCCc3c[nH]c4ccccc34)cc2)ccn1 (stereo not drawn) [Compound 88],3160
8,Cc1ccc2[nH]cc(CCNc3ccc(Nc4ccncc4)cc3)c2c1 [Compound 185],2000
9,CC(=O)OCc1cc(Nc2ccc(NCCc3c[nH]c4ccccc34)cc2)ccn1 [Compound 151],> 10000
10,COC(=O)CCNC(C)c1cc(Nc2ccc(NCCc3c[nH]c4ccccc34)cc2)ccn1 (stereo not drawn) [Compound 146],7940
11,COc1cc(Nc2ccnc(CO)c2)ccc1NCCc1c[nH]c2ccccc12 [Compound 179],251
12,CCOc1cc(Nc2ccncc2)ccc1NCCc1c[nH]c2ccccc12 [Compound 2],63.1
13,Clc1cccc2[nH]cc(CCNc3ccc(Nc4ccncc4)cc3)c12 [Compound 186],1000
14,O=C(c1cc(Nc2ccc(NCCc3c[nH]c4ccccc34)cc2)ccn1)N1CCCC1 [Compound 49],> 10000
15,CCC(O)c1cc(Nc2ccc(NCCc3c[nH]c4ccccc34)cc2)ccn1 (stereo not drawn) [Compound 203],3160
16,CC(C)(O)c1cc(Nc2ccc(NCCc3c[nH]c4ccccc34)cc2)ccn1 [Compound 201],3160
17,CC1(CO)CCCN(C(=O)C(Cc2c[nH]c3ccccc23)Nc2ccc(Nc3ccncc3)cc2)C1 (stereo not drawn) [Compound 219],3980
18,CC(C)(C)OC(=O)N(CCc1cn(C(=O)OC(C)(C)C)c2ccccc12)c1ccc(Nc2ccnc(Cl)c2)cc1 [Compound 102],> 10000
19,CCOc1cc(Nc2ccnc3ccccc23)ccc1NCCc1c[nH]c2ccccc12 [Compound 35],39.8
20,CCC(O)c1cnccc1Nc1ccc(NCCc2c[nH]c3ccccc23)cc1 (stereo not drawn) [Compound 127],7940

row,Compound,IC50 [nM]
1,Cc1cnccc1Cc1cnccc1Nc1ccc(NCCc2c[nH]c3ccccc23)cc1 [Compound 125],3980
2,CS(=O)(=O)NCc1cc(Nc2ccc(NCCc3c[nH]c4ccccc34)cc2)ccn1 [Compound 129],2000
3,c1ccc2c(CCNc3ccc(N(c4ccncc4)c4ccncc4)cc3)c[nH]c2c1 [Compound 228],7940
4,Brc1ccc2c(CCNc3ccc(Nc4ccncc4)cc3)c[nH]c2c1 [Compound 192],> 10000
5,Cc1noc(-c2cc(Nc3ccc(NCCc4c[nH]c5ccccc45)cc3)ccn2)n1 [Compound 106],1580
6,OC1CCc2c(Nc3ccc(NCCc4c[nH]c5ccccc45)cc3)ccnc21 (stereo not drawn) [Compound 110],10
7,CC(CO)(CO)C1CCN(C(=O)C(Cc2c[nH]c3ccccc23)Nc2ccc(Nc3ccncc3)cc2)CC1 (stereo not drawn) [Compound 221],3980
8,COc1ccc2c(CCNc3ccc(Nc4ccnc(CO)c4)cc3OC)c[nH]c2c1 [Compound 181],251
9,c1cncc(Nc2ccc(NCCc3c[nH]c4ccccc34)cc2)c1 [Compound 6],3160
10,COc1cc(Nc2ccncc2)ccc1NCCc1c[nH]c2ccccc12 [Compound 66],63.1
11,c1cncc(Nc2cccc(NCCc3c[nH]c4ccccc34)c2)c1 [Compound 76],> 10000
12,c1cc(NCCCc2c[nH]c3ccccc23)cc(Nc2ccncc2)c1 [Compound 84],1580
13,CCOC(C)c1cc(Nc2ccc(NCCc3c[nH]c4ccccc34)cc2)ccn1 (stereo not drawn) [Compound 149],2000
14,O=C(C(Cc1c[nH]c2ccccc12)Nc1ccc(Nc2ccncc2)cc1)N(CCO)Cc1ccccc1 (stereo not drawn) [Compound 214],> 10000
15,CCOc1cc(Nc2ccnc(C(C)(C)O)c2)ccc1NCCc1c[nH]c2cc(OC)ccc12 [Compound 139],2000
16,COc1ccc2c(CCNc3ccc(Nc4ccnc(CO)c4)cc3)c[nH]c2c1 [Compound 180],631
17,Cc1ccc2[nH]cc(CCNc3ccc(Nc4ccnc(CO)c4)cc3)c2c1 [Compound 189],3160
18,O=C(CCc1ccccc1)NCc1cc(Nc2ccc(NCCc3c[nH]c4ccccc34)cc2)ccn1 [Compound 131],2510
19,CC(=O)OC(C)(C)c1cc(Nc2ccc(NCCc3c[nH]c4ccccc34)cc2)ccn1 [Compound 202],3160
20,FC(F)(F)c1cccc2c(Nc3ccc(NCCc4c[nH]c5ccccc45)cc3)ccnc12 [Compound 31],1260

# System: not given
# Test: not given
# Conditions: not given
row,Compound,melting point [°C]
1,c1ccc2c(CCNc3ccc(CNc4ccncc4)cc3)c[nH]c2c1 [Compound 11],122
2,O=C(CCc1c[nH]c2ccccc12)Nc1ccc(Nc2ccncc2)cc1 [Compound 8],208
3,c1cncc(CNc2ccc(NCCc3c[nH]c4ccccc34)cc2)c1 (as salt: hydrochloric acid salt) [Compound 121],130
4,c1ccc(Cc2noc(-c3cc(Nc4ccc(NCCc5c[nH]c6ccccc56)cc4)ccn3)n2)cc1 [Compound 108],159 to 161
5,CCOc1cc(Nc2ccncc2)ccc1NCCc1c[nH]c2ccccc12 (as salt: hydrochloric acid salt) [Compound 2],150
6,COc1ccc2c(CNc3ccc(Nc4ccncc4)cc3)c[nH]c2c1 [Compound 7],145
7,N#Cc1ccc2[nH]cc(C(O)C(=O)Nc3ccc(Nc4ccncc4)cc3)c2c1 (stereo not drawn) [Compound 113],154
8,c1cncc(Nc2ccc(NCCc3c[nH]c4ccccc34)cc2)c1 (as salt: HCl) [Compound 6],160
9,Cn1cc(CCN(c2ccncc2)c2ccc(Nc3ccncc3)cc2)c2ccccc21 (as salt: hydrochloric acid salt) [Compound 10],> 250
10,c1ccc2c(CCNc3ccc(Nc4ccnc(-c5nnn[nH]5)c4)cc3)c[nH]c2c1 [Compound 87],210
11,OC1CCCc2c(Nc3ccc(NCCc4c[nH]c5ccccc45)cc3)ccnc21 (stereo not drawn) [Compound 111],104
12,c1ccc2c(CCNc3ccc(NCc4ccncc4)cc3)c[nH]c2c1 (as salt: salt) [Compound 9],132
13,c1ccc2c(Nc3ccc(NCCc4c[nH]c5ccccc45)cc3)ccnc2c1 (as salt: HCl) [Compound 1],170
14,CCOc1cc(Nc2ccnc3c2CCC3O)ccc1NCCc1c[nH]c2cc(OC)ccc12 (stereo not drawn) [Compound 112],194
15,c1ccc(-c2noc(-c3cc(Nc4ccc(NCCc5c[nH]c6ccccc56)cc4)ccn3)n2)cc1 [Compound 107],170 to 174
